Test results published in article PMC8698768, “The Effects of Sorbus aucuparia L. Fruit Extracts on Oxidative/Nitrative Modifications of Human Fibrinogen, Impact on Enzymatic Properties of Thrombin, and Hyaluronidase Activity In Vitro” (Antioxidants, 2021).

Legend:
[1] = molecular target: T1, hyaluronidase from bovine testes type I-S (Bos taurus, UniProt F1MTV1); experiment: turbidimetric hyaluronidase inhibition assay; format: biochemical; conditions: substrate hyaluronic acid 0.03%, with bovine serum albumin 0.1%; per mL of the enzyme solution; read-out: IC50 (μg/mL) ^a
T1 construct: gene SPAM1; native commercial preparation from bovine testes (Sigma-Aldrich, type I-S)
T1 sequence (F1MTV1 36-553): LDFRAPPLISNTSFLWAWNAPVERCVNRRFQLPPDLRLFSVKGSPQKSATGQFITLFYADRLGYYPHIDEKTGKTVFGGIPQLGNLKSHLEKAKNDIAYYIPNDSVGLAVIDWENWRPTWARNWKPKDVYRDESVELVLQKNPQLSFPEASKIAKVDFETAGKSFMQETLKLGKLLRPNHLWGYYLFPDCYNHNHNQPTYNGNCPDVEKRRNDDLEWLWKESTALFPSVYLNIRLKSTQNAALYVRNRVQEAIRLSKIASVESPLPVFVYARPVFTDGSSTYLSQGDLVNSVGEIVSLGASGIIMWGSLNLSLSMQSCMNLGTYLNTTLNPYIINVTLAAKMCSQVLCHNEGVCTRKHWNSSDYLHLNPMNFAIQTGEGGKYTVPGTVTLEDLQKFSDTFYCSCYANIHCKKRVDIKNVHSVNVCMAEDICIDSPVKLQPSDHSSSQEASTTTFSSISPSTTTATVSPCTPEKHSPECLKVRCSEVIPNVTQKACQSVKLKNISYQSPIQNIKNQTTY
Source text: turbidimetric hyaluronidase inhibition assay on hyaluronidase from bovine testes type I-S

[2] = molecular target: T2, thrombin (Bos taurus, UniProt P00735); experiment: chromogenic amidolytic assay (S-2238), […] nm; format: biochemical; conditions: read-out: % inhibition at 50 μg/mL
T2 construct: gene F2; Biomed Lublin thrombin is usually of bovine origin, human (P00734) not excluded

SMILES | IC50 [1] [µM] | inhibition at 50 µg/mL [2] [%]
O=C(/C=C/c1ccc(O)c(O)c1)O[C@@H]1C[C@](O)(C(=O)O)C[C@@H](O)[C@H]1O [CHA, chlorogenic acid] | > 339 | 
O=c1c(O[C@@H]2O[C@H](CO)[C@@H](O)[C@H](O)[C@H]2O)c(-c2ccc(O)c(O)c2)oc2cc(O)cc(O)c12 [IQ, isoquercitrin] | > 431 | 
Oc1cc(O)c2c(c1)O[C@H](c1ccc(O)c(O)c1)[C@H](O)[C@H]2c1c(O)cc(O)c2c1O[C@H](c1ccc(O)c(O)c1)[C@H](O)C2 [PB2, procyanidin B2] | > 207 | 27
O=c1c(O[C@@H]2O[C@H](CO)[C@@H](O)[C@H](O)[C@H]2O[C@@H]2O[C@H](CO)[C@@H](O)[C@H](O)[C@H]2O)c(-c2ccc(O)c(O)c2)oc2cc(O)cc(O)c12 [SQ, quercetin 3-O-β-sophoroside] | > 319 | 
